Data taken from US8193150B2, “Improving vascular function with an inactivating mutant of a TRPC channel protein” (Sanofi, priority 2005, dated 2012).
Structures can show the parent of a compound that is named as a salt.

Columns and labels:
TRPC3 = target: T1, TRPC3 (Homo sapiens, UniProt Q13507); assay: FLIPR Ca2+ fluorescence assay in inducible Flp-In T-REx-TRPC3 HEK 293 cells; type: cell-based; conditions: mean±SEM; for Fluorescence changes (F/F0): 200 nM trypsin, t=60 sec, n=9
T1 construct: expressed in transfected cells
T1 sequence (Q13507 74-921): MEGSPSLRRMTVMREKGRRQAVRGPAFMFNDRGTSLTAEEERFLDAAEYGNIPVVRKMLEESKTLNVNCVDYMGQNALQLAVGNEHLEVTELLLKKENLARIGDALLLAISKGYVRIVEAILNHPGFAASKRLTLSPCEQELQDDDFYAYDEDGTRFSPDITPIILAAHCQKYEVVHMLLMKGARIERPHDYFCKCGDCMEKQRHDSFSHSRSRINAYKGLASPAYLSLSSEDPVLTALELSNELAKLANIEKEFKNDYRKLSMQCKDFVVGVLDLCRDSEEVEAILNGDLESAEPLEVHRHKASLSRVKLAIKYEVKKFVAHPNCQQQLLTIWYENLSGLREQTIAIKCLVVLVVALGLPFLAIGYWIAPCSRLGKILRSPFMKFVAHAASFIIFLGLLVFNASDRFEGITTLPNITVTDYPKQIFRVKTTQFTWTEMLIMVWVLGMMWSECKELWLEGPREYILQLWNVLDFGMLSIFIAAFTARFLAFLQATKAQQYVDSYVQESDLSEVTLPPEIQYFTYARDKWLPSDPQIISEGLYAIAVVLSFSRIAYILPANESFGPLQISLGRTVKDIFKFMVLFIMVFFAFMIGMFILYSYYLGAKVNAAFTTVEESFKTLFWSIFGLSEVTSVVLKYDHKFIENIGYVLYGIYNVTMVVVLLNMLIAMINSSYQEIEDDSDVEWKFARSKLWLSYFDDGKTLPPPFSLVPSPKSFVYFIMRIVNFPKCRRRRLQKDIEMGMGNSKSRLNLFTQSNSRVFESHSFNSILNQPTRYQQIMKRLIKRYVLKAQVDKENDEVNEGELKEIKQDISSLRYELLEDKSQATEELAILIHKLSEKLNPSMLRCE
Excerpt: (§1) To develop an assay for the identification of TRPC channel modulators, recombinant HEK 293 cell lines were produced using the Flp-In T-REx system (Invitrogen, Karsruhe, Germany) that express TRPC3 (accession # U47050) or TRPC6 (accession # AF080394) cDNAs under the control of an inducible promoter. Channel cDNAs were amplified by standard techniques and cloned into pcDNA5/FRT/TO (Invitrogen, Karlsruhe, Germany). After transfection of Flp-In T-Rex 293 cells with the channel constructs stable cell lines were selected with hygromycin. Cells were maintained according to the manufactures instructions and channel expression of was induced by addition of 1 μg/ml doxycycline for 20-30 h. Cells were plated into 96 well poly-d-lysine coated black walled clear bottom microtiter plates (BD Biosciences, Bedford, Mass.) at a density of 40000-50000 cells/well 20-30 h before experiments. […] Ca^2+ measurements were performed using a 96 well Fluorescence Imaging Plate Reader (FLIPR), (Molecular Devices Corporation, Sunnyvale, Calif.). […]
(§2) Fluorescence changes in fluo-4 loaded cells were measured using FLIPR II. […] Shown are mean fluorescence values±SEM from 9 wells each. Fluorescence values were normalized to the mean baseline fluorescence (F0).
(§3) To identify modulators of TRPC3 or TRPC6 with the assays described above induced cells were used and test compounds are added to the wells before or after application of OAG. The expected effect of inhibitors would be a reduction of the fluorescence increase. Channel activators would lead to a further increase of the OAG-evoked signal or induce an OAG-independent fluorescence increase. […]
(§4) Fluorescence changes induced by 30 μM OAG in TRPC3-and TRPC6 expressing cells were measured in the presence of the given concentrations of SKF 96365. […] Inhibition is expressed as % of control fluorescence in the absence of SKF 96365. […]

TRPC6 = target: T2, TRPC6 (Homo sapiens, UniProt Q9Y210); assay: FLIPR Ca2+ fluorescence assay in inducible Flp-In T-REx-TRPC6 HEK 293 cells; type: cell-based; conditions: mean±SEM; for Fluorescence changes (F/F0): 200 nM trypsin, t=60 sec, n=12
T2 construct: expressed in transfected cells
T2 sequence (Q9Y210 1-931): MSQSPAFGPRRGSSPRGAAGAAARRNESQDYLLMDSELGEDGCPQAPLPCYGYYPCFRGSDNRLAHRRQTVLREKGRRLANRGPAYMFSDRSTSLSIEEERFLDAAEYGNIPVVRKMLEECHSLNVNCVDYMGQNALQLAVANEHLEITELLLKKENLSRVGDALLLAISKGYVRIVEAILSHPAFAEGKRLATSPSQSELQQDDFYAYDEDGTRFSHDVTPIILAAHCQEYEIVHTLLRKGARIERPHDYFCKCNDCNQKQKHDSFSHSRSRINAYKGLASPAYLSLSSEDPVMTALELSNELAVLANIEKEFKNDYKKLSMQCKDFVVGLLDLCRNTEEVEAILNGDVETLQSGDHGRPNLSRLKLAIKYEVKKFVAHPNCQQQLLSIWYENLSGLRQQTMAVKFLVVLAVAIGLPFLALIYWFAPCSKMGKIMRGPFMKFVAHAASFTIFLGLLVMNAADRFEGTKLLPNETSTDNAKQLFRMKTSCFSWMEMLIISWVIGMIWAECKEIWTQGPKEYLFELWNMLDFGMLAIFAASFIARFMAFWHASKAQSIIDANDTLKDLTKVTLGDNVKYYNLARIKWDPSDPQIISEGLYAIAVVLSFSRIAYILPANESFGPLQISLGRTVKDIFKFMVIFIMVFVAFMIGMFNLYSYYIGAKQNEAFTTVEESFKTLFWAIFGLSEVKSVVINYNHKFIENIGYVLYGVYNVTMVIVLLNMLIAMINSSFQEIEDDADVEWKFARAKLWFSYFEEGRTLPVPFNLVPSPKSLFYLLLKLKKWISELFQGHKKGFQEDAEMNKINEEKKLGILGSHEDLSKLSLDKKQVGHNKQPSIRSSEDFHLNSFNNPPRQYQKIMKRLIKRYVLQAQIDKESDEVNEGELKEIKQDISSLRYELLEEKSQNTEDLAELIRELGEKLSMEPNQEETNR
Excerpt: as §1, §2, §3, §4

IC50 (TRPC3; doxycycline-induced cells, 30 μM OAG, n=8, read-out: IC50, inhibition of OAG-activated fluorescence responses in TRPC3 expressing cells) [µM]	IC50 (TRPC6; doxycycline-induced cells, 30 μM OAG, n=8, read-out: IC50, inhibition of OAG-activated fluorescence responses in TRPC6 expressing cells) [µM]	Fluorescence changes (F/F0) (TRPC3; induced Flp-In T-REx-TRPC3 cells)	Fluorescence changes (F/F0) (TRPC3; non-induced Flp-In T-REx-TRPC3 cells)	Fluorescence changes (F/F0) (TRPC6; induced Flp-In T-REx-TRPC6 cells)	Fluorescence changes (F/F0) (TRPC6; non-induced Flp-In T-REx-TRPC6 cells)	Molecule
1.8	5.04 ± 0.17					COc1ccc(CCCOC(Cn2ccnc2)c2ccc(OC)cc2)cc1 (stereo not drawn) [SKF 96365, 1-(β-[3-(4-methoxyphenyl)propoxy]-4-methoxyphenethyl)-1H-imidazole-HCl]
		2.71 ± 0.022 (n = 9)	1.65 ± 0.034 (n = 9)	2.26 ± 0.05 (n = 12)	0.88 ± 0.009 (n = 12)	trypsin
